Earlier results as cited in patent US11103891B2, “Pharmaceutical composition” (priority 2011, dated 2021).

Settings: immediate release preparations of levodopa

levodopa dose that reaches the brain: about 5%
SMILES: N[C@@H](Cc1ccc(O)c(O)c1)C(=O)O [levodopa]
